Results as given in patent US8247211B2, “Glycopeptide antibiotics” (American Cyanamid Company, priority 2001, dated 2012).

What was measured:
Test in all cases: In vitro antibacterial evaluation: minimum inhibitory concentration (MIC), broth dilution method
Format in all cases: cell-based
Streptococcus sp. = details: broth dilution, 5×10^5 CFU/mL, 18 hours at 35° C.
Method: (§1) The minimum inhibitory concentration (MIC), the lowest concentration of the antibiotic which inhibits growth of the test organism, is determined by the broth dilution method using Muller-Hinton II […] (Baltimore Biological Laboratories) following the recommendations of the National Committee for Clinical Laboratory Standards [Methods for dilution antimicrobial susceptibility tests for bacteria that grow aerobically, approved standard M7-A2, National Committee for Clinical Laboratory Standards, Villanova, Pa].
(§2) An inoculum level of 5×10^5 CFU/mL, and a range of antibiotic concentrations (64-0.06 μg/mL) is used. […] The test organisms include a spectrum of Gram-positive bacteria comprised of Staphylococcus sp., Streptococcus sp. and Enterococcus sp. These organisms include recent clinical isolates that are resistant to methicillin, penicillin and/or vancomycin.

Enterococcus sp. = details: broth dilution, 5×10^5 CFU/mL, 18 hours at 35° C.
Method: as §1, §2

Escherichia coli = details: 5×10^5 CFU/mL, 18 hours at 35° C.
Method: as §1, §2

Staphylococcus sp. = details: for MIC Staphylococcus aureus (ATCC 29213): strain ATCC 29213; for MIC Staphylococcus aureus (GC 1131): strain GC 1131; for MIC Staphylococcus aureus (GC 3051): strain GC 3051; for MIC Staphylococcus aureus (GC 3053): strain GC 3053; for MIC Staphylococcus aureus (GC 4541): strain GC 4541; for MIC Staphylococcus aureus (GC 4542): strain GC 4542; for MIC Staphylococcus aureus-SMITH (GC 4543): strain GC 4543; for MIC Staphylococcus aureus (GC 4544): strain GC 4544; for MIC Staphylococcus aureus (GC 4545): strain GC 4545; for MIC Staphylococcus haemolyticus (GC 4546): strain GC 4546; for MIC Coagulase Negative Staphylococcus (GC 4547): strain GC 4547; for MIC Coagulase Negative Staphylococcus (GC 4548): strain GC 4548; for MIC Coagulase Negative Staphylococcus (GC 4549): strain GC 4549; for MIC Coagulase Negative Staphylococcus (GC 4551): strain GC 4551; for MIC Coagulase Negative Staphylococcus (GC 6257): strain GC 6257
Method: as §1, §2

[1] = broth dilution, 18 hours at 35° C.

CC(c1ccccc1)C1NC(=O)CNC(=O)C(CO)NC(=O)C(C(O)C2CNC(=N)N2C2OC(CO)C(O)C(O)C2O)NC(=O)C(C(O)C2CNC(=N)N2)NC(=O)C(Cc2ccc(OC3OC(CO)C(OC4OC5COC(CCc6ccccc6)OC5C(O)C4O)C(O)C3O)cc2)NC1=O (centres unmarked) [Example 124]
<0.06 µg/mL: MIC Streptococcus pneumoniae (GC 1894) (Streptococcus sp.) | MIC Streptococcus pneumoniae (GC 4565) (Streptococcus sp.) | MIC Streptococcus pneumonine (ATCC 6301) (Streptococcus sp.)
2 µg/mL: MIC Staphylococcus aureus (ATCC 29213) (Staphylococcus sp.) | MIC Staphylococcus aureus (ATCC 29213) (Staphylococcus sp.; [1]) | MIC Staphylococcus aureus (GC 1131) (Staphylococcus sp.) | MIC Staphylococcus aureus (GC 1131) (Staphylococcus sp.; [1]) | MIC Staphylococcus aureus (GC 3051) (Staphylococcus sp.) | MIC Staphylococcus aureus (GC 3051) (Staphylococcus sp.; [1]) | MIC Staphylococcus aureus (GC 3053) (Staphylococcus sp.) | MIC Staphylococcus aureus (GC 3053) (Staphylococcus sp.; [1]) | MIC Staphylococcus aureus (GC 4541) (Staphylococcus sp.) | MIC Staphylococcus aureus (GC 4541) (Staphylococcus sp.; [1]) | MIC Staphylococcus aureus-SMITH (GC 4543) (Staphylococcus sp.; 18 hours at 35° C.) | MIC Staphylococcus aureus-SMITH (GC 4543) (Staphylococcus sp.; [1]) | MIC Staphylococcus aureus (GC 4544) (Staphylococcus sp.) | MIC Staphylococcus aureus (GC 4544) (Staphylococcus sp.; [1]) | MIC Staphylococcus aureus (GC 4545) (Staphylococcus sp.) | MIC Staphylococcus aureus (GC 4545) (Staphylococcus sp.; [1]) | MIC Staphylococcus haemolyticus (GC 4546) (Staphylococcus sp.) | MIC Staphylococcus haemolyticus (GC 4546) (Staphylococcus sp.; [1]) | MIC Coagulase Negative Staphylococcus (GC 4547) (Staphylococcus sp.) | MIC Coagulase Negative Staphylococcus (GC 4547) (Staphylococcus sp.; [1]) | MIC Coagulase Negative Staphylococcus (GC 4551) (Staphylococcus sp.) | MIC Coagulase Negative Staphylococcus (GC 4551) (Staphylococcus sp.; [1])
0.12 µg/mL: MIC Streptococcus pyogenes (GC 4563) (Streptococcus sp.)
1 µg/mL: MIC Streptococcus agalactiae (GC 4564) (Streptococcus sp.) | MIC Enterococccus faecium (GC 4557) (Enterococcus sp.) | MIC Escherichia coli (GC 4560) (Escherichia coli) | MIC Staphylococcus aureus (GC 4542) (Staphylococcus sp.) | MIC Staphylococcus aureus (GC 4542) (Staphylococcus sp.; [1]) | MIC Coagulase Negative Staphylococcus (GC 4548) (Staphylococcus sp.) | MIC Coagulase Negative Staphylococcus (GC 4548) (Staphylococcus sp.; [1]) | MIC Coagulase Negative Staphylococcus (GC 4549) (Staphylococcus sp.) | MIC Coagulase Negative Staphylococcus (GC 4549) (Staphylococcus sp.; [1]) | MIC Coagulase Negative Staphylococcus (GC 6257) (Staphylococcus sp.) | MIC Coagulase Negative Staphylococcus (GC 6257) (Staphylococcus sp.; [1])
32 µg/mL: MIC Escherichia coli (ATCC 25922) (Escherichia coli) | MIC Escherichia coli (GC 4559) (Escherichia coli)
4 µg/mL: MIC Enterococccus faecalis (ATCC 29212) (Enterococcus sp.) | MIC Enterococccus faecalis (GC 2691) (Enterococcus sp.) | MIC Enterococccus faecalis (GC 3059) (Enterococcus sp.) | MIC Enterococccus faecalis (GC 4552) (Enterococcus sp.) | MIC Enterococccus faecalis (GC 4553) (Enterococcus sp.) | MIC Enterococccus faecalis (GC 4554) (Enterococcus sp.) | MIC Enterococccus faecalis (GC 6189) (Enterococcus sp.) | MIC Enterococccus faecium (GC 2243) (Enterococcus sp.) | MIC Enterococccus faecium (GC 4556) (Enterococcus sp.) | MIC Enterococcus faecalis (GC 2242) (Enterococcus sp.)
0.25 µg/mL: MIC Enterococccus avium (GC 4558) (Enterococcus sp.)
